According to patent publication US7335735B2, “Intracellular estradiol binding protein” (Cedars-Sinai Medical Center, priority 2003, dated 2008):
“Also recorded” adds a separate entry of the source.

How the values were obtained:
hsp27 = experiment: Western blot analysis of hsp27 expression in wild-type breast cells; assay type: cell-based, Old World primate; details: wild-type control cells, Western blot with anti-hsp27 antibody
[1] = tested on: ERE-directed transactivation; experiment: ERE-promoter-reporter luciferase assay, transient co-transfection; assay type: cell-based, Old World primate
glucocorticoid receptors = details: New World primate cells; cited from earlier work
ERE = experiment: Electrophoretic mobility shift analysis (EMSA) with idealized ERE as probe; assay type: binding; details: postnuclear extracts from OWP-IEBP stable transfectant clone 1, recombinant ERα
Procedure: This is believed to be due, at least in part, to enhanced binding of estrogens. To determine whether IEBP also functions as a direct competitor for ERE-binding, the inventors carried out electrophoretic mobility shift analyses (EMSAs) using an idealized ERE as a probe with recombinant ERα and/or postnuclear extracts from OWP-IEBP stable transfectant clone 1 as binding proteins. […] To assess this possibility, coimmunoprecipitation was performed by using anti-ERα and anti-hsp27 antibodies. Antihuman ERα antibodies were used to immunoprecipitate […] proteins in postnuculear extracts of both wild-type and IEBP-stably-transfected cells. The immunoprecipitates were subjected to Western blot analysis by using hsp27 antibodies. Data confirmed association between ERα and hsp27. Similar results were also obtained following initial immunoprecipitation with hsp27, and subsequent ERα blotting.

[2] = tested on: ERE-directed transactivation; experiment: ERE luciferase reporter assay in cells stably transfected with IEBP; assay type: cell-based, Old World primate; details: stable transfectants compared with wild-type cells
Procedure: E2-responsive OWP breast cells from cell line 6299 were incubated with 5.0 ug pcDNA3.1/v5-His-TOPO IEBP plasmid in LIPOTAXI solution for 5 hours followed by the addition of equal volume of 20% FCS-supplemented medium. After incubation overnight, cells were split (1:10 ratio) and incubated with fresh medium containing 500 ug/ml of the geneticin-selective antibiotic G418 sulfate (Life Technology; Grand Island, N.Y.). This medium was replaced every 3-4 days, until stable colonies formed. Single colonies were picked, transferred into a new dish, and incubated with medium containing selection antibiotic G418 until confluence for further study.
Experiments were therefore carried out to clarify whether the overexpression of IEBP antagonized, facilitated, or did nothing to estrogen-induced transactivation. Estrogen-responsive Old World primate cells were transiently co-transfected with IEBP cDNA and an ERE-promoter-reporter construct. After transfection, ERE-directed luciferase activity was reduced 50% compared to vector alone-transfected Old World primate cells. […] Similar results were also obtained following stable transfection of IEBP into Old World primate cells. Increased expression of IEBP in these cells was confirmed by Western blot analyses using an anti-hsp27 antibody.

Molecule: C[C@]12CC[C@@H]3c4ccc(O)cc4CC[C@H]3[C@@H]1CC[C@@H]2O [E2, 17β-estradiol]
- hsp27 expression (hsp27): stimulated hsp27 expression in a dose-dependent fashion; also recorded: strongly increased hsp27 expression
- effect on ERE-mediated transcription ([1]; transient transfectants, E2 pre-treatment in control cells): stimulated ERE-mediated transcription

Molecule: FKBP51: heat-shock protein (hsp)90-associated FK 506-binding immunophilin
- inhibition of ligand binding to glucocorticoid receptors (glucocorticoid receptors): 74%

B1: IEBP: novel hsp27-related intracellular estradiol binding protein from New World primate B95-8 cells, SEQ ID NO:1 (protein, listed as Homo sapiens)
chain: MTERHVPFSLLQSPSWDPFRDWYPHSHLFDQAFGMPRLPEEWSQWFGTSSWPGYVRPLPPTTVEGPAVAAPAYSRALNQQLSSGVSETADRWRVSLDVNHFAPEELTVKTKDGVVEITGKHEERQDEHGFISRCFTRKYSLPPGVDPTQVSPSLSPEGTLTVDAPMSKPATQSNEITIPVTFESRAQLGGPEAAKSDRSAAK
- reduction of ERE-directed luciferase activity ([1]; transient co-transfection of cDNA and ERE-promoter-reporter construct, compared to vector alone-transfected Old World primate cells): 50%
- binding to ERE and competition with ERα for ERE (ERE): neither bound to ERE nor competed with the ERα for binding to ERE
- decrease of ERE luciferase reporter activity [2]: 2-3 fold
